Data on two compounds can be found in patent US11173173B2, “Methods for treating chemoresistant cancer-initiating cells” (UNIVERSITY OF CONNECTICUT, priority 2015, dated 2021).

Structures are written as SMILES.

The test system of one test is colon cancer. The conditions noted are these: in vitro; cited from earlier work.
For test [1] the following is noted: cited from earlier work.
In the next test the test system is pan β-catenin. As to the kind of experiment: Western analysis of pan β-catenin in compound-treated TOP and FOP cells. The conditions noted are these: TOP and FOP cells treated 48 hours at EC90, EC50, EC25.
For test [2], the system named is BM cells isolated from leukemic Pten:β-cat^Act double mutants (LSCs, HSPCs). As to the kind of experiment: In vitro treatment of BM cells from leukemic mice, flow cytometry for LSCs and HSPCs. The format is cell-based, mouse. The conditions noted are these: BM cells from leukemic double mutants in vitro. How it is done: Doxorubicin, 0105375, and thioguanosine were added to 11, 33 or 100 nM and cultured for 72 hours and analyzed by flow cytometry for LSCs (a) and HSPCs (b) as in FIG. 1. Fold change before and after culture for each population is indicated relative to equivalent vehicle control concentrations.
Bone marrow cells from leukemic mice at 8 weeks post-induction were cultured overnight at 5-20×10^4 cells per well in 96-well U-bottom tissue culture plates (Becton, Dickinson and Company; Cat. No. 353077) in HSC expansion media in low O2 conditions as previously described (Perry, J. M. et al. Cooperation between both Wnt/{beta}-catenin and PTEN/PI3K/Akt signaling promotes primitive hematopoietic stem cell self-renewal and expansion. Genes Dev 25, 1928-1942 (2011)). Doxorubicin (Sigma; D1515), 0105375 ((S)-N-(2-bromobenzyl)-N-(1-hydroxy-3-phenylpropan-2-yl)ethenesulfonamide, University of Kansas CMLD compound), or Thioguanosine was mixed with HSC expansion media and added to the cultures to obtain final concentrations of 11, 33, 100 nM. Equivalent amounts of DMSO alone (vehicle control) were added to parallel cultures for comparison. Half-media changes were performed approximately every 24 hrs. Cultures were analyzed after 72 hrs exposure to the indicated drug.
In general terms: In flow cytometry, cells or beads pass a laser one at a time.

The test system of another test is pS^552-β-catenin. As to the kind of experiment: Western analysis of pS552-β-catenin in compound-treated TOP and FOP cells.

Method for pS^552-β-catenin: (§1) Cytotoxicity profiles (CTG) of compounds were also determined. […] TOP and FOP cells were treated with candidate compounds at EC90, EC50 and EC25 derived from (b) for 48 hours, washed and flash frozen for Western analysis (c).
(§2) Activity of compounds was tested against HEK-TOP cells vs. HEK FOP cells for inhibition of luciferase activity. The cytotoxicity profiles of the compounds were also tested using Cell Titer Glo assay (Promega) on HEK-TOP cell lines. […] The HEK cells and HEK Top cells were plated at 300,000 cells/well in 6 well plates and were treated in duplicate with EC90, EC50 and EC25 concentrations of the 25 repurchased compounds as well as three controls. After 48 h of exposure, the cells were washed with PBS and flash frozen. The frozen cells were lysed directly in plates for Western analysis.
Method for pan β-catenin: as §1, §2

Regarding `Oc1nc(-c2ccc(C(F)(F)F)cc2)nc2c1CSCC2` [XAV-939], the “reversal of resistance to PI3K and Akt inhibitors” value in the test on colon cancer was “reverse this resistance in vitro”. The activity in vivo entry in test [1] was “low activity of this inhibitor in vivo”.
Consider `C=CS(=O)(=O)N(Cc1ccccc1Br)[C@H](CO)Cc1ccccc1` [compound 0105375, (S)-N-(2-bromobenzyl)-N-(1-hydroxy-3-phenylpropan-2-yl)ethenesulfonamide], for which, in the test on pan β-catenin, the “effect on pan β-catenin (Western)” value is “no significant effect on pan β-catenin”. Further, the “potency relative to DXR” value in test [2] is reported as “far less potency than DXR”. Further, the “inhibition of pS552-β-catenin (Western)” value in the test with pS^552-β-catenin (TOP and FOP cells treated 48 hours at EC90, EC50, EC25) is on record as “effectively inhibited pS^552-β-catenin”. Besides, the “concentration needed to inhibit pS552-β-catenin” value in the test on pS^552-β-catenin (relatively high concentrations) is reported as over 1 μM.
